Laboratory results taken from PubChem BioAssay (NCI).
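Five compound concentrations were applied to cells in 96-well plates for 48 hours; endpoints were derived by simple linear interpolation of the resulting dose-response curve. TGI is the concentration that stops growth completely.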

How the values were obtained:
Experiment in all cases: NCI tumour cell line growth inhibition, 48 h
[1] = test system: DMS 114 small cell lung
[2] = test system: M19-MEL melanoma
[3] = test system: HOP-18 NSCLC
[4] = test system: DMS 273 small cell lung
[5] = test system: XF 498 CNS
[6] = test system: P388 leukemia
[7] = test system: SN12K1 renal
[8] = test system: KM20L2 colon
[9] = test system: DLD-1 colon
[10] = test system: P388/ADR leukemia
[11] = test system: SNB-78 CNS
[12] = test system: RXF-631 renal

With `O=C1c2ccccc2C(O)(C(=O)O)C1(O)CC=C(Cl)Cl` (configuration not stated) the TGI [1] was > 125 µM, the TGI [2] was > 125 µM and the TGI [3] was > 125 µM. The TGI [4] was > 125 µM, the TGI [5] was > 125 µM and the TGI [6] was > 125 µM. The TGI [7] was > 125 µM, the TGI [8] was > 125 µM and the TGI [9] was > 125 µM. The TGI [10] was > 70.3 µM and the TGI [11] was > 125 µM.

With `COc1cc2c[n+](C)c3c4cc5c(cc4ccc3c2cc1OC)OCO5` the TGI [12] was > 100 µM, the TGI [1] was 5.92 µM and the TGI [2] was 2.9 µM. It also gave a TGI [3] of 93.6 µM, a TGI [4] of 11.6 µM and a TGI [5] of 9.95 µM. For the same molecule, the TGI [8] was 3.47 µM, the TGI [9] was > 31.6 µM and the TGI [11] was > 25.9 µM.

With `Ic1ncnc2c1ncn2C1CCCO1` (configuration not stated) the TGI [1] was > 100 µM, the TGI [2] was > 100 µM and the TGI [3] was > 100 µM. For the same molecule, the TGI [4] was > 100 µM, the TGI [5] was > 100 µM and the TGI [8] was > 100 µM. For the same molecule, the TGI [9] was > 100 µM and the TGI [11] was > 100 µM.

For `O=C(Nc1ccc(Cl)cc1)C(=O)C(C(=O)c1ccccc1-c1ccccc1)C1OC(=O)c2ccccc21` (configuration not stated), the TGI [1] was 38.8 µM, the TGI [2] was 41.6 µM and the TGI [4] was > 100 µM. For the same molecule, the TGI [5] was 36.6 µM, the TGI [8] was 55.6 µM and the TGI [9] was > 100 µM. For the same molecule, the TGI [11] was > 100 µM.

With `COC(=O)C(C)NP(=O)(N1CC1)N1CC1` (configuration not stated) the TGI [12] was > 100 µM, the TGI [1] was > 100 µM and the TGI [4] was > 100 µM. The TGI [5] was > 100 µM, the TGI [8] was > 100 µM and the TGI [9] was > 100 µM. The TGI [11] was > 100 µM.
